Structures are written as SMILES. Where a name gives a salt, the structure may show the parent alone. A value given as a limit tells only on which side of the number the result lay.

A word on the EC50: it is the concentration giving half of the maximal effect. A high value points to lower potency in that assay.

For assay [1], the system named is cellular p-ERK in HCT116 human colorectal carcinoma / A375 human malignant melanoma cell lines. As to the kind of experiment: Phospho-ERK cell-based assay (ELISA), Example 4. The conditions noted are these: in either one of the cell lines (HCT116, A375), 2 h or 24 h exposure. Here is the method:
Example 4 Phospho-ERK Cell-Based Assay
Compounds are tested in a cell-based phospho-ERK ELISA using the following cell lines:
HCT116 human colorectal carcinoma (ATCC)
(§1) A375 human malignant melanoma (ATCC)
(§2) Both cell lines are maintained in DMEM/F12 (1:1) media (Gibco) supplemented with 10% FCS at 37° C. in a 5% CO2 humidified incubator.
Cells are seeded in 96-well plates at 2,000 cells/well and after 24 h they are exposed to different concentrations of compounds in 0.83% DMSO. Cells are grown for a further 2 h or 24 h, fixed with formaldehyde (2% final) and permeabilised with methanol. Following blocking with TBST-3% BSA, fixed cells are incubated with primary antibody (anti-phospho ERK from rabbit) over-night at 4° C. Cells are incubated with Propidium Iodide (DNA fluorescent dye) and detection of cellular p-ERK is performed using an anti-rabbit secondary antibody conjugated to the fluorescent Alexa Fluor 488 dye (Molecular probes). The fluorescence is analysed using the Acumen Explorer (TTP Labtech), a laser-scanning microplate cytometer, and the Alexa Fluor 488 signal is normalised to the PI signal (proportional to cell number).
The EC50 is defined as the concentration at which a given compound achieves a signal half way between the baseline and the maximum response. EC50 values are calculated using the XLfit software package (version 2.0.5).
A general note: ELISA stands for enzyme-linked immunosorbent assay.

Assay [2] deals with HCT 116 human colorectal carcinoma / A375 human malignant melanoma cell lines. As to the kind of experiment: Cell proliferation assay (CellTiter-Glo), Example 3. The settings on record: in either one of the cell lines (HCT 116, A375), 72 h. The assay is classed as cell-based. Here is the method:
Example 3 Cell Proliferation Assay
Compounds are tested in a cell proliferation assay using the following cell lines:
HCT 116 human colorectal carcinoma (ATCC)
as §1, §2
Cells are seeded in 96-well plates at 2,000 cells/well and after 24 hours they are exposed to different concentrations of compounds in 0.83% DMSO. Cells are grown for a further 72 h, and an equal volume of CellTiter-Glo reagent (Promega) is added to each well. This lyses the cells and generates a luminescent signal proportional to the amount of ATP released (and therefore proportional to the number of cells in the well) that can be detected using a multiwell luminometer.
EC50 values are calculated using the XLfit software package (version 2.0.5).
For orientation: Cellular ATP, detected with luciferase, serves as a proxy for viable cell number.

With `O=C(NOC1CCOCC1)c1oc2ccncc2c1Nc1ccc(I)cc1F` [Example 25, 3-(2-Fluoro-4-iodo-phenylamino)-furo[3,2-c]pyridine-2-carboxylic acid (tetrahydro-pyran-4-yloxy)-amide], the EC50 in assay [1] and in assay [2] was less than 10 µM in each case.

In the case of `Cc1cncc2c(Nc3ccc(I)cc3F)c(C(=O)NOCCO)oc12` [Example 134, 3-(2-Fluoro-4-iodo-phenylamino)-7-methyl-furo[3,2-c]pyridine-2-carboxylic acid (2-hydroxy-ethoxy)-amide], the EC50 in assay [1] and in assay [2] was less than 10 µM each time.

As for `C=COCCONC(=O)c1oc2ccncc2c1Nc1ccc(I)cc1F` [Example 11, 3-(2-Fluoro-4-iodo-phenylamino)-furo[3,2-c]pyridine-2-carboxylic acid (2-vinyloxy-ethoxy)-amide], the EC50 in assay [1] and in assay [2] was less than 10 µM each time.

For `O=C(NOCC1CC1)c1oc2ccncc2c1Nc1ccc(I)cc1F` [Example 8, 3-(2-Fluoro-4-iodo-phenylamino)-furo[3,2-c]pyridine-2-carboxylic acid cyclopropylmethoxy-amide], the EC50 in assay [1] and in assay [2] was less than 10 µM throughout.

With `O=C(NO[C@H]1CCNC1)c1oc2ccncc2c1Nc1ccc(I)cc1F` [Example 38, 3-(2-Fluoro-4-iodo-phenylamino)-furo[3,2-c]pyridine-2-carboxylic acid ((S)-pyrrolidin-3-yloxy)-amide mono formate salt], the half-maximal effective concentration (EC50) in assay [1] and in assay [2] was less than 10 µM throughout.

As for `O=C(NOC1CCCNC1)c1oc2ccncc2c1Nc1ccc(I)cc1F` (stereo not drawn) [Example 140, 3-(2-Fluoro-4-iodo-phenylamino)-furo[3,2-c]pyridine-2-carboxylic acid (piperdin-3-yloxy)-amide], the concentration for a half-maximal effect (EC50) in assay [1] and in assay [2] was less than 10 µM in each case.

Regarding `O=C(NOC[C@H](O)CO)c1oc2cnccc2c1Nc1ccc(I)cc1F` [Example 9, 3-(2-Fluoro-4-iodo-phenylamino)-furo[2,3-c]pyridine-2-carboxylic acid ((R)-2,3-dihydroxy-propoxy)-amide], the half-maximal effective concentration (EC50) in assay [1] and in assay [2] was less than 10 µM each time.

For the compound `O=C(c1oc2ccncc2c1Nc1ccc(I)cc1F)N1C[C@H](O)[C@@H](O)[C@H]1CO` [Example 160, (3-(2-fluoro-4-iodophenylamino)furo[3,2-c]pyridin-2-yl)((2R,3S,4S)-3,4-dihydroxy-2-(hydroxymethyl)pyrrolidin-1-yl)methanone], the EC50 in assay [1] and in assay [2] was less than 10 µM each time.

`O=C(NOC1CNC1)c1oc2ccncc2c1Nc1ccc(I)cc1F` [Example 41, 3-(2-Fluoro-4-iodo-phenylamino)-furo[3,2-c]pyridine-2-carboxylic acid (azetidin-3-yloxy)-amide mono formate salt]: the EC50 in assay [1] and in assay [2] was less than 10 µM throughout.

As to `O=C(NOC[C@H](O)CO)c1oc2ccncc2c1Nc1ccc(Br)cc1F` [Example 6, 3-(2-Fluoro-4-bromo-phenylamino)-furo[3,2-c]pyridine-2-carboxylic acid ((R)-2,3-dihydroxy-propoxy)-amide], the EC50 in assay [1] and in assay [2] was less than 10 µM in each case.

For the compound `NCCONC(=O)c1oc2ccncc2c1Nc1ccc(I)cc1F` [Example 31, 3-(2-Fluoro-4-iodo-phenylamino)-furo[3,2-c]pyridine-2-carboxlic acid (2-amino-ethoxy)-amide], the EC50 in assay [1] and in assay [2] was less than 10 µM throughout.

Consider `O=C(NOCCO)c1oc2c(-c3ccccc3)cncc2c1Nc1ccc(I)cc1F` [Example 133, 3-(2-Fluoro-4-iodo-phenylamino)-7-phenyl-furo[3,2-c]pyridine-2-carboxylic acid (2-hydroxy-ethoxy)-amide], for which the EC50 in assay [1] and in assay [2] was less than 10 µM in each case.

As for `O=C(c1oc2ccncc2c1Nc1ccc(I)cc1F)N1CC(O)CO1` (stereo not drawn) [Example 28, [3-(2-Fluoro-4-iodo-phenylamino)-furo[3,2-c]pyridin-2-yl]-(4-hydroxy-isoxazolidin-2-yl)-methanone], the 50% effective concentration (EC50) in assay [1] and in assay [2] was less than 10 µM throughout.

On to `O=C(NOC[C@H](O)CO)c1oc2ccncc2c1Nc1cc(F)c(I)cc1F` [Example 15, 3-(2,5-Difluoro-4-iodo-phenylamino)-furo[3,2-c]pyridine-2-carboxylic acid ((R)-2,3-dihydroxy-propoxy)-amide], for which the EC50 in assay [1] and in assay [2] was less than 10 µM throughout.

Turning to `CS(=O)(=O)NCCONC(=O)c1oc2ccncc2c1Nc1ccc(I)cc1F` [Example 109, 3-(2-Fluoro-4-iodo-phenylamino)-furo[3,2-c]pyridine-2-carboxylic acid (2-methanesulfonylamino-ethoxy)-amide], the EC50 in assay [1] and in assay [2] was less than 10 µM each time.

As for `O=C(NOC[C@H](O)CO)c1oc2ccncc2c1Nc1ccc(I)cc1` [Example 12, 3-(4-Iodo-phenylamino)-furo[3,2-c]pyridine-2-carboxylic acid ((R)-2,3-dihydroxy-propoxy)-amide], the EC50 in assay [1] and in assay [2] was less than 10 µM throughout.

In the case of `C#Cc1ccc(Nc2c(C(=O)NOC[C@H](O)CO)oc3ccncc23)c(F)c1` [Example 7, 3-(4-Ethynyl-2-fluoro-phenylamino)-furo[3,2-c]pyridine-2-carboxylic acid ((R)-2,3-dihydroxy-propoxy)-amide], the EC50 in assay [1] and in assay [2] was less than 10 µM each time.

In the case of `NC(=O)c1oc2ccncc2c1Nc1ccc(I)cc1F` [Example 21, 3-(2-Fluoro-4-iodo-phenylamino)-furo[3,2-c]pyridine-2-carboxylic acid amide], the EC50 in assay [1] and in assay [2] was less than 10 µM each time.

For the compound `O=C(NOCCO)c1oc2c(Cl)cncc2c1Nc1ccc(I)cc1F` [Example 39, 7-Chloro-3-(2-fluoro-4-iodo-phenyl-amino)-furo[3,2-c]pyridine-2-carboxylic acid (2-hydroxy-ethoxy)-amide], the EC50 in assay [1] and in assay [2] was less than 10 µM in each case.

`O=C(NO)c1oc2ccncc2c1Nc1ccc(I)cc1F` [Example 24, 3-(2-Fluoro-4-iodo-phenylamino)-furo[3,2-c]pyridine-2-carboxylic acid hydroxyamide]: the EC50 in assay [1] and in assay [2] was less than 10 µM each time.

With `O=C(NOC[C@@H]1CCCN1)c1oc2ccncc2c1Nc1ccc(I)cc1F` [Example 141, 3-(2-Fluoro-4-iodo-phenylamino)-furo[3,2-c]pyridine-2-carboxylic acid ((S)-1-pyrrolidin-2-ylmethoxy)-amide], the EC50 in assay [1] and in assay [2] was less than 10 µM each time.

For the origin of these results see patent publication US20080085886A1, “Aza-benzofuranyl compounds and methods of use” (GENENTECH, INC., priority 2006, published 2008).
